Experimental findings from patent publication US12678454B2, “Bicarbonate as a potentiator for antimicrobial agents” (priority 2017, dated 2026) are described below.

One data set has as its system E. coli. The data set can be described thus: Microdilution checkerboard analyses. Format: cell-based, Escherichia coli. The protocol:
In the following experiments, bacterial cells were cultured in 96-well microtiter plates in cation-adjusted Mueller-Hinton Broth (MHB) for 18 h at 37° C. The main strains used in this study were E. coli (K-12 BW25113) (placed in stationary incubator) and S. aureus (Strain Newman) (incubated at 250 r.p.m). Knockout strains (ΔtolcC and ΔychM) were used from the Keio knockout collection (Baba, T. et al. Construction of Escherichia coli K-12 in-frame, single-gene knockout mutants: the Keio collection. Mol Syst Biol 2, 2006 0008, doi:10.1038/msb4100050 (2006)). For minimum concentration for inhibition (MIC) determination and checkerboard analyses, Clinical & Laboratory Standards Institute (CLSI) protocol was used. […] DiSC3 loading of S. aureus cells was performed as previously described (Farha, M. A., Verschoor, C. P., Bowdish, D. & Brown, E. D. Collapsing the proton motive force to identify synergistic combinations against Staphylococcus aureus. Chemistry & biology 20, 1168-1178, doi:10.1016/j.chembiol.2013.07.006 (2013)). CCCP concentration of 20 μM was used. pH adjustments were made by addition of HCl or NaOH. INT assay and ATP bioluminescence assays were performed as previously described (Farha, M. A., Verschoor, C. P., Bowdish, D. & Brown, E. D. Collapsing the proton motive force to identify synergistic combinations against Staphylococcus aureus. Chemistry & biology 20, 1168-1178, doi:10.1016/j.chembiol.2013.07.006 (2013)). For chemical-genomic studies, the Keio library was grown overnight in cation-adjusted MHB broth, in 384-well plates. From these, treatment plates (25 mM sodium bicarbonate, or a sterile water control) were inoculated and grown for 15 hours at 37° C., in a stationary incubator. Data was normalized according to Mangat et al (Mangat, C. S., Bharat, A., Gehrke, S. S. & Brown, E. D. Rank ordering plate data facilitates data visualization and normalization in high-throughput screening. J Biomol Screen 19, 1314-1320, doi:10.1177/1087057114534298 (2014)), with gene products and GO terms mined from EcoCyc. […]

The conditions of data set [1]: trisodium phosphate added. From the text: Test media were pH-adjusted upon addition of sodium bicarbonate for all studies reported herein.
A further data set deals with E. coli (K-12 BW25113). Format: cell-based, Escherichia coli. The arrangement: MIC, E. coli, MHB− / MIC, E. coli, MHB+: unit not given here. The note with it: for MIC, E. coli, MHB−: MHB without sodium bicarbonate. The protocol: (§1) In the following experiments, bacterial cells were cultured in 96-well microtiter plates in cation-adjusted Mueller-Hinton Broth (MHB) for 18 h at 37° C. The main strains used in this study were E. coli (K-12 BW25113) (placed in stationary incubator) and S. aureus (Strain Newman) (incubated at 250 r.p.m). Knockout strains (ΔtolcC and ΔychM) were used from the Keio knockout collection (Baba, T. et al. Construction of Escherichia coli K-12 in-frame, single-gene knockout mutants: the Keio collection. Mol Syst Biol 2, 2006 0008, doi:10.1038/msb4100050 (2006)). For minimum concentration for inhibition (MIC) determination and checkerboard analyses, Clinical & Laboratory Standards Institute (CLSI) protocol was used. […] DiSC3 loading of S. aureus cells was performed as previously described (Farha, M. A., Verschoor, C. P., Bowdish, D. & Brown, E. D. Collapsing the proton motive force to identify synergistic combinations against Staphylococcus aureus. Chemistry & biology 20, 1168-1178, doi:10.1016/j.chembiol.2013.07.006 (2013)). CCCP concentration of 20 μM was used. pH adjustments were made by addition of HCl or NaOH. INT assay and ATP bioluminescence assays were performed as previously described (Farha, M. A., Verschoor, C. P., Bowdish, D. & Brown, E. D. Collapsing the proton motive force to identify synergistic combinations against Staphylococcus aureus. Chemistry & biology 20, 1168-1178, doi:10.1016/j.chembiol.2013.07.006 (2013)). For chemical-genomic studies, the Keio library was grown overnight in cation-adjusted MHB broth, in 384-well plates. From these, treatment plates (25 mM sodium bicarbonate, or a sterile water control) were inoculated and grown for 15 hours at 37° C., in a stationary incubator. Data was normalized according to Mangat et al (Mangat, C. S., Bharat, A., Gehrke, S. S. & Brown, E. D. Rank ordering plate data facilitates data visualization and normalization in high-throughput screening. J Biomol Screen 19, 1314-1320, doi:10.1177/1087057114534298 (2014)), with gene products and GO terms mined from EcoCyc. The GFP promoter library (Keseler, I. M. et al. EcoCyc: fusing model organism databases with systems biology. Nucleic Acids Res 41, D605-612, doi:10.1093/nar/gks1027 (2013)) was grown for 18 hours at ambient temperature with the same inoculation strategy as with the Keio collection. The analysis pipeline of Zaslaver et al (Zaslaver, A. et al. A comprehensive library of fluorescent transcriptional reporters for Escherichia coli. Nat Methods 3, 623-628, doi:10.1038/nmeth895 (2006)) was used to generate maps of promoter activity, from which lists of promoters with increased or decreased activity were compiled.

Data set [2] deals with S. aureus (Strain Newman). In words: MIC determination (CLSI protocol) in MHB. Format: cell-based, Staphylococcus aureus. The conditions noted are these: for MIC, S. aureus, MHB−: MHB without sodium bicarbonate. As for the experimental part:
as §1

Bridge positions count the residues as written; N and C are the ends. Square brackets hold non-standard residues; d marks the D form. Peptide text beside a SMILES is read from it. * marks the point of attachment. Ileψ(thiazoline)Cys = CC[C@H](C)[C@H](N)C1=N[C@H](C(=O)*)CS1; dOrn = NCCC[C@@H](N)C(=O)O

Take `O=P([O-])([O-])[O-].[Na+].[Na+].[Na+]` [trisodium phosphate]: the “effect on activity of dirithromycin (checkerboard)” value in the data set with E. coli (pH not adjusted (pH ~10)) was “potentiated the activity of dirithromycin”; in the data set with E. coli (pH of the medium adjusted to 7.2), “loss of synergy”. Further, the “increase of the pH of the media” value in data set [1] is recorded as 3 units.
As for `CC[C@H](C)[C@H](N)C1=N[C@H](C(=O)N[C@@H](CC(C)C)C(=O)N[C@H](CCC(=O)O)C(=O)N[C@H](C(=O)N[C@H]2CCCCNC(=O)[C@H](CC(N)=O)NC(=O)[C@@H](CC(=O)O)NC(=O)[C@H](Cc3cnc[nH]3)NC(=O)[C@@H](Cc3ccccc3)NC(=O)[C@H]([C@@H](C)CC)NC(=O)[C@@H](CCCN)NC2=O)[C@@H](C)CC)CS1` [Bacitracin] ({Ileψ(thiazoline)Cys}-L[dE]IK[dOrn]I[dF]H[dD]N; lactam 4-C), in the data set on E. coli (K-12 BW25113), the “Fold, E. coli” value worked out at 1 fold and the “MIC, E. coli, MHB+” value is on record as above 256. Moreover, in data set [2], the “Fold, S. aureus” value is on record as −2 fold and the MIC, S. aureus, MHB− was found to be 32 µg/mL.
The corresponding values for `O=CN(O)CCCP(=O)(O)O` [Fosmidomycin] are −2 fold, 32, 1 fold and above 64 µg/mL.
For `C[C@@H]1O[C@@H]1P(=O)(O)O` [Fosfomycin], in the data set on E. coli (K-12 BW25113), the “Fold, E. coli” value is reported as −4 fold and the “MIC, E. coli, MHB+” value is reported as 16. In addition, in data set [2], the “Fold, S. aureus” value is −4 fold and the MIC, S. aureus, MHB− was determined as 16 µg/mL.
As for Polymyxin B, in the data set on E. coli (K-12 BW25113), the “Fold, E. coli” value is given as −2 fold; the “MIC, E. coli, MHB+” value was 0.5; the “MIC, E. coli, MHB−” value came to 0.25. In data set [2], the “Fold, S. aureus” value was determined as 8 fold.
As for `C[C@H]1c2cccc(O)c2C(=O)C2=C(O)[C@]3(O)C(=O)C(C(N)=O)=C(O)[C@@H](N(C)C)[C@@H]3[C@@H](O)[C@@H]21` [Doxycycline], in the data set with E. coli (K-12 BW25113), the “Fold, E. coli” value is −4 fold and the “MIC, E. coli, MHB+” value came to 4. In data set [2], the “Fold, S. aureus” value is −16 fold and the MIC, S. aureus, MHB− was 0.125 µg/mL.
On to `CCn1cc(C(=O)O)c(=O)c2ccc(C)nc21` [Nalidixic acid], for which, in the data set on E. coli (K-12 BW25113), the “Fold, E. coli” value is on record as −4 fold and the “MIC, E. coli, MHB+” value is 8. In data set [2], the “Fold, S. aureus” value was −4 fold and the MIC, S. aureus, MHB− is above 8 µg/mL.
For the molecule `Cc1onc(-c2ccccc2Cl)c1C(=O)N[C@@H]1C(=O)N2[C@@H]1SC(C)(C)[C@@H]2C(=O)O` [Cloxacillin], in the data set with E. coli (K-12 BW25113), the “Fold, E. coli” value amounted to 1 fold and the “MIC, E. coli, MHB+” value was 256. In data set [2], the “Fold, S. aureus” value is reported as −16 fold and the MIC, S. aureus, MHB− is 0.031 µg/mL.
As for Gentamicin, in the data set with E. coli (K-12 BW25113), the “Fold, E. coli” value turned out to be 8 fold; the “MIC, E. coli, MHB+” value stood at 0.25; the “effect of CCCP pre-treatment on potentiation by sodium bicarbonate” value is “abolishes the potentiation”; the “MIC, E. coli, MHB−” value amounted to 2. Moreover, in data set [2], the “Fold, S. aureus” value worked out at 2 fold.
In the case of `CC1(C)S[C@@H]2[C@H](NC(=O)[C@H](N)c3ccccc3)C(=O)N2[C@H]1C(=O)O` [Ampicillin], in the data set with E. coli (K-12 BW25113), the “Fold, E. coli” value is listed as −2 fold and the “MIC, E. coli, MHB+” value was 32. In addition, in data set [2], the “Fold, S. aureus” value is −8 fold and the MIC, S. aureus, MHB− is 1 µg/mL.
